The text below walks through data of US7501418B2, “Fused heterocyclic isoxazoline derivatives and their use as anti-depressants” (Janssen Pharmaceutica, N.V., priority 2002, dated 2009).

Like-named read-outs stand apart in the source and are kept apart here.

One data set concerns the target T1, hα2B receptor (Homo sapiens, UniProt P18089).
T1 construct: expressed in transfected cells
T1 sequence (P18089 1-450): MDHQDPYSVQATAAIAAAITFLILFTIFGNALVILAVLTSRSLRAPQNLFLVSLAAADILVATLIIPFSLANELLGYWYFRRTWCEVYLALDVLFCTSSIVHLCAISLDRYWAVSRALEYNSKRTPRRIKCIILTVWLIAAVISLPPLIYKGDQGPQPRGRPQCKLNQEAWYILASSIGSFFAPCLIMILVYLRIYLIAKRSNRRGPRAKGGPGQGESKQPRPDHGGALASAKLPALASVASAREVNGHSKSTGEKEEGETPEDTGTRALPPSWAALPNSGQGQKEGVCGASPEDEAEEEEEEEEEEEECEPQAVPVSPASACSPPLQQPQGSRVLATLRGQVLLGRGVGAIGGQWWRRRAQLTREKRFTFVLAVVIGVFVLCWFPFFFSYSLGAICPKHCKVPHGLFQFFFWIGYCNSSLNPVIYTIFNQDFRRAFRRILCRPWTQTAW
Description: Radioligand binding experiment for α2B-adrenergic receptor ([3H]-raulwolscine). On the procedure: (§1) In general, a low concentration of a radioligand with a high binding affinity for a particular receptor or transporter is incubated with a sample of a tissue preparation enriched in a particular receptor or transporter or with a preparation of cells expressing cloned human receptors in a buffered medium. During the incubation, the radioligand binds to the receptor or transporter. When equilibrium of binding is reached, the receptor bound radioactivity is separated from the non-bound radioactivity, and the receptor- or transporter-bound activity is counted. The interaction of the test compounds with the receptor is assessed in competition binding experiments. Various concentrations of the test compound are added to the incubation mixture containing the receptor- or transporter preparation and the radioligand. The test compound in proportion to its binding affinity and its concentration inhibits binding of the radioligand. The radioligand used for hα2A, hα2B and hα2C receptor binding was [^3H]-raulwolscine and for the h5-HT transporter was [^3H]paroxetine. CHO cells, stabile transfected with human adrenergic-α2A-, -α2B or α2C receptor cDNA, were cultured in Dulbecco's Modified Eagle's Medium (DMEM)/Nutrient mixture Ham's F12 (ratio 1:1)(Gibco, Gent-Belgium) supplemented with 10% heat inactivated fetal calf serum (Life Technologies, Merelbeke-Belgium) and antibiotics (100 IU/ml penicillin G, 100 μg/ml streptomycin sulphate, 110 μg/ml pyruvic acid and 100 μg/ml L-glutamine). One day before collection, cells were induced with 5 mM sodiumbutyrate. Upon 80-90% of confluence, cells were scraped in phosphate buffered saline without Ca^2+ and Mg^2+ and collected by centrifugation at 1500×g for 10 min. The cells were homogenised in Tris-HCl 50 mM using an Ultraturrax homogenizer and centrifuged for 10 min at 23,500×g. The pellet was washed once by resuspension and rehomogenization and the final pellet was resuspended in Tris-HCl, divided in 1 ml aliquots and stored at −70° C. Membranes were thawed and re-homogenized in incubation buffer (glycylglycine 25 mM, pH 8.0). In a total volume of 500 μl, 2-10 μg protein was incubated with [^3H]raulwolscine (NET-722) (New England Nuclear, USA) (1 nM final concentration) with or without competitor for 60 min at 25° C. followed by rapid filtration over GF/B filter using a Filtermate196 harvester (Packard, Meriden, Conn.). Filters were rinsed extensively with ice-cold rinsing buffer (Tris-HCl 50 mM pH 7.4). Filter-bound radioactivity was determined by scintillation counting in a Topcount (Packard, Meriden, Conn.) and results were expressed as counts per minute (cpm). Non-specific binding was determined in the presence of 1 μM oxymetazoline for hα2A- and hα2B receptors and 1 μM spiroxatrine for hα2C receptors. Data from assays in the presence of compound were calculated as a percentage of total binding measured in the absence of test compound. Inhibition curves, plotting percent of total binding versus the log value of the concentration of the test compound, were automatically generated, and sigmoidal inhibition curves were fitted using non-linear regression. The pIC50 values of test compounds were derived from individual curves.

For another data set, the target named is T2, hα2A receptor (Homo sapiens, UniProt P08913).
T2 construct: expressed in transfected cells
T2 sequence (P08913 1-465): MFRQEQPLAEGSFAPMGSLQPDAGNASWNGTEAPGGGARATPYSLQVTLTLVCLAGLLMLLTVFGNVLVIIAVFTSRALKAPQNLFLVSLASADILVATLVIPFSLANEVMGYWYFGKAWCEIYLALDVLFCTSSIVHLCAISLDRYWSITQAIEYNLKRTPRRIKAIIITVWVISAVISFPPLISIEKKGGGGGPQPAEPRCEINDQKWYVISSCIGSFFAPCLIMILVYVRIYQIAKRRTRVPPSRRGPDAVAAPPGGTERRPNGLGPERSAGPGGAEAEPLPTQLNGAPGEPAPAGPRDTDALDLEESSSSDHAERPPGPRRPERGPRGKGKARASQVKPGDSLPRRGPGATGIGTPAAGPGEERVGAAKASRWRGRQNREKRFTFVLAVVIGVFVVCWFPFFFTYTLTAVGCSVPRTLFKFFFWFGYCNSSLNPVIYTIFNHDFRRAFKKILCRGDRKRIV
Description: Radioligand binding experiment for α2A-adrenergic receptor ([3H]-raulwolscine). To be noted: hα2A (pIC50), CHO cell membranes with human α2A receptor, [3H]raulwolscine 1 nM. On the procedure:
as §1

Another data set has as its target T3, hα2C receptor (Homo sapiens, UniProt P18825).
T3 construct: expressed in transfected cells
T3 sequence (P18825 1-462): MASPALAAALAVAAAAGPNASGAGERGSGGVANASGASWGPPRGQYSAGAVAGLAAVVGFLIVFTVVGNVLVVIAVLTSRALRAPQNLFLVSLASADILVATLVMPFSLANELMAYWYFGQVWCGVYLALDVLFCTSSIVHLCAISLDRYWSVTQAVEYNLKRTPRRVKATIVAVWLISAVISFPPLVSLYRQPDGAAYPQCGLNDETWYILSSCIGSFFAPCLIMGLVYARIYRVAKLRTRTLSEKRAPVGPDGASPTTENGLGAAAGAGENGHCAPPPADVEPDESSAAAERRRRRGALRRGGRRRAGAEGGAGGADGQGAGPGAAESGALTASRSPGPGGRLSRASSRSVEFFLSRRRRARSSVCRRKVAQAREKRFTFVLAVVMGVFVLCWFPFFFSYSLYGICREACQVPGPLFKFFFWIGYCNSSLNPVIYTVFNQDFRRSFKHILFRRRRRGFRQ
The data set is described as follows: Radioligand binding experiment for α2C-adrenergic receptor ([3H]-raulwolscine). On the procedure:
as §1

The target of a further data set is T4, h5-HT transporter (Homo sapiens, UniProt P31645).
T4 construct: Human platelet membranes (Oceanix Biosciences Corporation, Hanover, Md., USA) were thawed; tissue Oceanix Biosciences Corporation, Hanover, Md., USA; host or cells: human platelet membranes
T4 sequence (P31645 whole entry): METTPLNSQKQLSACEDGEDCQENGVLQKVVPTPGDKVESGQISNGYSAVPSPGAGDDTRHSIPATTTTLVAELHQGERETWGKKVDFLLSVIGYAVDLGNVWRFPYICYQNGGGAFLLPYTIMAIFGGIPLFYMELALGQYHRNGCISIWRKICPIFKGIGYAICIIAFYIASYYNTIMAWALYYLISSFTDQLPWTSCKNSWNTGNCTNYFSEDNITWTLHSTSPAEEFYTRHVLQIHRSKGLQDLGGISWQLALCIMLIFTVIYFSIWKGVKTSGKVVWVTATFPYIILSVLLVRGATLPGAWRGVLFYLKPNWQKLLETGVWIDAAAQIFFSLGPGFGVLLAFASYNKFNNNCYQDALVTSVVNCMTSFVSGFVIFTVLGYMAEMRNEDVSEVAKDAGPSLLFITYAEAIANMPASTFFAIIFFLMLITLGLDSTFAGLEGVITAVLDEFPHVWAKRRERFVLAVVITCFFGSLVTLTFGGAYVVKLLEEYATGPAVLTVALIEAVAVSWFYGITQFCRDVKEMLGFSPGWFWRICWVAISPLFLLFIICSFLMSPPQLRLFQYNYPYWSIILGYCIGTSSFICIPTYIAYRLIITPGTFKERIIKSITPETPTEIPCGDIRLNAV
The data set is described as follows: Radioligand binding experiment for 5-HT transporter ([3H]paroxetine). The conditions noted are these: human platelet membranes, [3H]paroxetine 0.5 nM. On the procedure: In general, a low concentration of a radioligand with a high binding affinity for a particular receptor or transporter is incubated with a sample of a tissue preparation enriched in a particular receptor or transporter or with a preparation of cells expressing cloned human receptors in a buffered medium. During the incubation, the radioligand binds to the receptor or transporter. When equilibrium of binding is reached, the receptor bound radioactivity is separated from the non-bound radioactivity, and the receptor- or transporter-bound activity is counted. The interaction of the test compounds with the receptor is assessed in competition binding experiments. Various concentrations of the test compound are added to the incubation mixture containing the receptor- or transporter preparation and the radioligand. The test compound in proportion to its binding affinity and its concentration inhibits binding of the radioligand. The radioligand used for hα2A, hα2B and hα2C receptor binding was [^3H]-raulwolscine and for the h5-HT transporter was [^3H]paroxetine. Human platelet membranes (Oceanix Biosciences Corporation, Hanover, Md., USA) were thawed, diluted in buffer (Tris-HCl 50 mM, 120 mM NaCl and 5 mM KCl) and quickly (max 3 s) homogenised with an Ultraturrax homogenizer. In a total volume of 250 μL, 50-100 μg protein was incubated with [^3H]paroxetine (NET-869) (New England Nuclear, USA) (0.5 nM final concentration) with or without competitor for 60 min at 25 ° C. Incubation was stopped by rapid filtration of the incubation mixture over GF/B filters, pre-wetted with 0.1% polyethyleneamine, using a Filtermate196 harvester (Packard, Meriden, Conn.). Filters were rinsed extensively with ice-cold buffer and radioactivity on the filters was counted in a Topcount liquid scintillation counter (Packard, Meriden, Conn.). Data were expressed as cpm. Imipramine (at 1 μM final concentration) was used to determine the non-specific binding. Data from assays in the presence of compound were calculated as a percentage of total binding measured in the absence of test compound. Inhibition curves, plotting percent of total binding versus the log value of the concentration of the test compound, were automatically generated, and sigmoidal inhibition curves were fitted using non-linear regression. The pIC50 values of test compounds were derived from individual curves.

In turn, `C/C(=C\c1ccccc1)CN1CCN(C[C@@H]2ON=C3c4cc5cc[nH]c5cc4OC[C@H]32)CC1` (relative stereo) [Compound 1, 3-[4-(2-Methyl-3-phenyl-allyl)-piperazin-1-ylmethyl]-3a,4-dihydro-3H-2,5-dioxa-1,7-diaza-dicyclopenta[a,g]naphthalene] displayed a melting point of 173.2 to 179.1 °C. This compound gave an IC50 at hα2B receptor of 3.98 nM. Also, the IC50 on hα2A receptor is 5.01 nM. On hα2C receptor, this compound gave an IC50 of 1 nM. On h5-HT transporter (5-HTT (pIC50)), this compound gave an IC50 of 3.98 nM.

Turning to `C/C(=C\c1ccccc1)CN1CCN(CC2ON=C3c4cc5ccn(CCO)c5cc4OCC32)CC1` (single isomer, unassigned) [Compound 16, A-2-{3-[4-(2-methyl-3-phenyl-allyl)-piperazin-1-ylmethyl]-3a,4-dihydro-3H-2,5-dioxa-1,7-diaza-dicyclopenta[a,g]naphthalen7-yl}-ethanol], the melting point was in the range of 167.9 to 170.2 °C. The same compound showed an IC50 on hα2B receptor (hα2B (pIC50), CHO cell membranes with human α2B receptor, [3H]raulwolscine 1 nM) of 20 nM. On hα2A receptor, this compound gave an IC50 of 316 nM. The compound also showed a half-inhibitory concentration (IC50) at hα2C receptor (hα2C (pIC50), CHO cell membranes with human α2C receptor, [3H]raulwolscine 1 nM) of 50.1 nM. The “5-HTT (pIC50)” value on h5-HT transporter came to 6.3.

By IC50 is commonly meant the concentration needed to halve the response being measured. What is called melting point is the temperature of the solid-liquid transition.
